Data reported in patent US20260184675A1, “CHIRAL ISOMERIC SULFITE COMPOUND AND APPLICATION THEREOF” (Chengdu Hanova BioSciences Co., Ltd, priority 2024, published 2026).
Values joined by “and” are separate entries in the source; they are usually repeats but may differ in a detail not shown here. Equal values may be shown once.

Experiments:
[1] = test system: pest eggs of Tetranychus cinnabarinus; assay: Effect on hatching of pest eggs of Tetranychus cinnabarinus, leaf disc method; type: in vivo; conditions: for Hatching rate (%): 7 days after insecticide delivery; for inhibitory effect on the hatching of pest eggs of Tetranychus cinnabarinus (in words): 1 ppm
Method in brief: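 Adult female mites laid eggs on 2.0 cm Vicia faba leaf discs for up to 36 h; discs with counted eggs were dipped 10 s in compound solution or water, then kept moist. Hatched eggs were counted 7 days after treatment and control effect was calculated by formula.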

[2] = test system: eggs of Thrips; assay: Effect on hatching of eggs of Thrips, leaf disc method; type: in vivo; conditions: 100 ppm; for Hatching rate (%): 5 days after insecticide delivery
Method in brief: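 Thrip egg hatching was tested by the leaf disc method on Vicia faba discs 2.0 cm across, placed over wetted filter paper. Egg numbers on each disc were counted under a microscope before treatment. Discs were then dipped for 10 seconds in clean water or a compound solution at 100 ppm. They were kept moist under normal conditions, and hatching was surveyed five days after insecticide delivery.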

[3] = test system: eggs of Tetranychus urticae; assay: Effect on hatching of eggs of Tetranychus urticae, leaf disc method; type: in vivo; conditions: 5 ppm; for Hatching rate (%): 5 days after insecticide delivery
Method in brief: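 Twenty adult female Tetranychus urticae mites were placed on 2.0 cm Vicia faba leaf discs over wetted filter paper in lidded dishes kept moist, and removed within 36 hours. Eggs on each disc were counted under a microscope. The egg-bearing discs were dipped for 10 seconds in a compound solution at 5 ppm or in clear water, then kept moist, and hatching was checked five days after treatment.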

[4] = test system: Magnaporthe grisea; type: cell-based; conditions: 100 ppm; for Average antifungal rate (%) / Antifungal rate of Magnaporthe grisea (%), Replicate 1 / Antifungal rate of Magnaporthe grisea (%), Replicate 2 / Antifungal rate of Magnaporthe grisea (%), Replicate 3: 96-well plate; for Average antifungal rate (%): average of 3 replicates
[5] = Replicate 1, listed as 1-(S, R)
[6] = Replicate 2, listed as 1-(S, R)
[7] = Replicate 3, listed as 1-(S, R)
[8] = Replicate 1, listed as 1′-(R, S)
[9] = Replicate 2, listed as 1′-(R, S)
[10] = Replicate 3, listed as 1′-(R, S)

## CC[C@H](COS(=O)OCCF)Oc1ccc(Cl)cc1Cl (stereo partly drawn) [19′-(R,S)]
[1]; 0.25 mg/L, Replicate 1
  Hatching rate (%): 70.31%
  Number of hatched larvae 7 days after insecticide delivery: 19
[1]; 0.25 mg/L, Replicate 2
  Hatching rate (%): 71.43%
  Number of hatched larvae 7 days after insecticide delivery: 20
[1]; 0.5 mg/L, Replicate 1
  Hatching rate (%): 46.48%
  Number of hatched larvae 7 days after insecticide delivery: 38
[1]; 0.5 mg/L, Replicate 2
  Hatching rate (%): 44.93%
  Number of hatched larvae 7 days after insecticide delivery: 38
[1]; 1 mg/L, Replicate 1
  Hatching rate (%): 6.00%
  Number of hatched larvae 7 days after insecticide delivery: 47
[1]; 1 mg/L, Replicate 2
  Hatching rate (%): 6.45%
  Number of hatched larvae 7 days after insecticide delivery: 58
[2]; Replicate 1
  Hatching rate (%): 9.02%
  Number of hatched larvae 5 days after insecticide delivery: 12
[2]; Replicate 2
  Hatching rate (%): 9.18%
  Number of hatched larvae 5 days after insecticide delivery: 9
[2]; Replicate 3
  Hatching rate (%): 8.74%
  Number of hatched larvae 5 days after insecticide delivery: 9
[3]; Replicate 1
  Hatching rate (%): 12.66%
  Number of hatched larvae 5 days after insecticide delivery: 10
[3]; Replicate 2
  Hatching rate (%): 13.25%
  Number of hatched larvae 5 days after insecticide delivery: 11
[4]
  inhibitory rate against Magnaporthe grisea (in words): strong inhibitory rate
  Average antifungal rate (%): 97.19% and 86.12%
  Antifungal rate of Magnaporthe grisea (%), Replicate 1: 85.69%
  Antifungal rate of Magnaporthe grisea (%), Replicate 2: 86.41%
  Antifungal rate of Magnaporthe grisea (%), Replicate 3: 86.27%

## CCC(COc1ccc(Cl)cc1Cl)OS(=O)OCCF (stereo not shown) [Compound 19]
[1]; 0.25 mg/L, Replicate 1
  Hatching rate (%): 72.22%
  Number of hatched larvae 7 days after insecticide delivery: 15
[1]; 0.25 mg/L, Replicate 2
  Hatching rate (%): 69.74%
  Number of hatched larvae 7 days after insecticide delivery: 23
[1]; 0.5 mg/L, Replicate 1
  Hatching rate (%): 34.69%
  Number of hatched larvae 7 days after insecticide delivery: 32
[1]; 0.5 mg/L, Replicate 2
  Hatching rate (%): 30.49%
  Number of hatched larvae 7 days after insecticide delivery: 57
[1]; 1 mg/L, Replicate 1
  Hatching rate (%): 0.00%
  Number of hatched larvae 7 days after insecticide delivery: 71
[1]; 1 mg/L, Replicate 2
  Hatching rate (%): 0.00%
  Number of hatched larvae 7 days after insecticide delivery: 65
[1]
  inhibitory effect on the hatching of pest eggs of Tetranychus cinnabarinus (in words): excellent inhibitory effects
[2]
  inhibitory activity on the hatching of eggs of Thrips (in words): strong inhibitory activities
[2]; Replicate 1
  Hatching rate (%): 0.00%
  Number of hatched larvae 5 days after insecticide delivery: 0
[2]; Replicate 2
  Hatching rate (%): 0.83%
  Number of hatched larvae 5 days after insecticide delivery: 1
[2]; Replicate 3
  Hatching rate (%): 0.00%
  Number of hatched larvae 5 days after insecticide delivery: 0
[3]
  inhibitory activity on the hatching of eggs of Tetranychus urticae (in words): strong inhibitory activities
[3]; Replicate 1
  Hatching rate (%): 0.00%
  Number of hatched larvae 5 days after insecticide delivery: 0
[3]; Replicate 2
  Hatching rate (%): 1.09%
  Number of hatched larvae 5 days after insecticide delivery: 1
[4]
  inhibitory rate against Magnaporthe grisea (in words): strong inhibitory rate
  Average antifungal rate (%): 95.57%
  Antifungal rate of Magnaporthe grisea (%), Replicate 1: 97.23%
  Antifungal rate of Magnaporthe grisea (%), Replicate 2: 95.14%
  Antifungal rate of Magnaporthe grisea (%), Replicate 3: 94.35%

## C[C@@H](COS(=O)OCCF)Oc1ccc(Cl)cc1Cl (stereo partly drawn) [1-(S,R)]
[1]; 0.25 mg/L, Replicate 1
  Hatching rate (%): 59.57%
  Number of hatched larvae 7 days after insecticide delivery: 19
[1]; 0.25 mg/L, Replicate 2
  Hatching rate (%): 76.09%
  Number of hatched larvae 7 days after insecticide delivery: 11
[1]; 0.5 mg/L, Replicate 1
  Hatching rate (%): 35.29%
  Number of hatched larvae 7 days after insecticide delivery: 33
[1]; 0.5 mg/L, Replicate 2
  Hatching rate (%): 31.25%
  Number of hatched larvae 7 days after insecticide delivery: 44
[1]; 1 mg/L, Replicate 1
  Hatching rate (%): 2.56%
  Number of hatched larvae 7 days after insecticide delivery: 76
[1]; 1 mg/L, Replicate 2
  Hatching rate (%): 0.00%
  Number of hatched larvae 7 days after insecticide delivery: 64
[2]; [5]
  Hatching rate (%): 12.06%
  Number of hatched larvae 5 days after insecticide delivery: 17
[2]; [6]
  Hatching rate (%): 8.33%
  Number of hatched larvae 5 days after insecticide delivery: 8
[2]; [7]
  Hatching rate (%): 10.28%
  Number of hatched larvae 5 days after insecticide delivery: 11
[3]; [5]
  Hatching rate (%): 10.87%
  Number of hatched larvae 5 days after insecticide delivery: 10
[3]; [6]
  Hatching rate (%): 12.16%
  Number of hatched larvae 5 days after insecticide delivery: 9
[4]
  inhibitory rate against Magnaporthe grisea (in words): strong inhibitory rate
  Average antifungal rate (%): 82.92%
  Antifungal rate of Magnaporthe grisea (%), Replicate 1: 87.32%
  Antifungal rate of Magnaporthe grisea (%), Replicate 2: 82.96%
  Antifungal rate of Magnaporthe grisea (%), Replicate 3: 78.48%

## CC(COc1ccc(Cl)cc1Cl)OS(=O)OCCF [1′-(R,S)]
[1]; 0.25 mg/L, Replicate 1
  Hatching rate (%): 54.17%
  Number of hatched larvae 7 days after insecticide delivery: 22
[1]; 0.25 mg/L, Replicate 2
  Hatching rate (%): 29.17%
  Number of hatched larvae 7 days after insecticide delivery: 68
[1]; 0.5 mg/L, Replicate 1
  Hatching rate (%): 1.25%
  Number of hatched larvae 7 days after insecticide delivery: 79
[1]; 0.5 mg/L, Replicate 2
  Hatching rate (%): 5.00%
  Number of hatched larvae 7 days after insecticide delivery: 76
[1]; 1 mg/L, Replicate 1
  Hatching rate (%): 0.00%
  Number of hatched larvae 7 days after insecticide delivery: 62
[1]; 1 mg/L, Replicate 2
  Hatching rate (%): 0.00%
  Number of hatched larvae 7 days after insecticide delivery: 42
[1]
  inhibitory effect on the hatching of pest eggs of Tetranychus cinnabarinus (in words): excellent inhibitory effects
[2]
  inhibitory activity on the hatching of eggs of Thrips (in words): strong inhibitory activities
[2]; [8]
  Hatching rate (%): 0.00%
  Number of hatched larvae 5 days after insecticide delivery: 0
[2]; [9]
  Hatching rate (%): 0.00%
  Number of hatched larvae 5 days after insecticide delivery: 0
[2]; [10]
  Hatching rate (%): 0.00%
  Number of hatched larvae 5 days after insecticide delivery: 0
[3]
  inhibitory activity on the hatching of eggs of Tetranychus urticae (in words): strong inhibitory activities
[3]; [8]
  Hatching rate (%): 0.00%
  Number of hatched larvae 5 days after insecticide delivery: 0
[3]; [9]
  Hatching rate (%): 0.00%
  Number of hatched larvae 5 days after insecticide delivery: 0
[4]
  inhibitory rate against Magnaporthe grisea (in words): strong inhibitory rate
  Average antifungal rate (%): 100.09%
  Antifungal rate of Magnaporthe grisea (%), Replicate 1: 100.26%
  Antifungal rate of Magnaporthe grisea (%), Replicate 2: 99.74%
  Antifungal rate of Magnaporthe grisea (%), Replicate 3: 100.26%

## CC(C)(COS(=O)OCCF)Oc1ccc(Cl)cc1Cl (stereo not shown) [Compound 10′]
[1]; 0.5 mg/L, Replicate 1
  Number of hatched larvae 7 days after insecticide delivery: 47
[1]
  inhibitory effect on the hatching of pest eggs of Tetranychus cinnabarinus (in words): excellent inhibitory effects
[2]
  inhibitory activity on the hatching of eggs of Thrips (in words): strong inhibitory activities
[2]; Replicate 1
  Hatching rate (%): 0.00%
  Number of hatched larvae 5 days after insecticide delivery: 0
[2]; Replicate 2
  Hatching rate (%): 1.55%
  Number of hatched larvae 5 days after insecticide delivery: 2
[2]; Replicate 3
  Hatching rate (%): 0.00%
  Number of hatched larvae 5 days after insecticide delivery: 0
[3]
  inhibitory activity on the hatching of eggs of Tetranychus urticae (in words): strong inhibitory activities
[3]; Replicate 1
  Hatching rate (%): 1.18%
  Number of hatched larvae 5 days after insecticide delivery: 1
[3]; Replicate 2
  Hatching rate (%): 1.10%
  Number of hatched larvae 5 days after insecticide delivery: 1
[4]
  inhibitory rate against Magnaporthe grisea (in words): strong inhibitory rate
  Average antifungal rate (%): 94.31%
  Antifungal rate of Magnaporthe grisea (%), Replicate 1: 94.01%
  Antifungal rate of Magnaporthe grisea (%), Replicate 2: 95.16%
  Antifungal rate of Magnaporthe grisea (%), Replicate 3: 93.77%

## CC[C@H](COc1ccc(Cl)cc1Cl)OS(=O)OCCF (stereo partly drawn) [19-(R,S)]
[1]; 0.25 mg/L, Replicate 1
  Hatching rate (%): 39.68%
  Number of hatched larvae 7 days after insecticide delivery: 38
[1]; 0.25 mg/L, Replicate 2
  Hatching rate (%): 41.38%
  Number of hatched larvae 7 days after insecticide delivery: 34
[1]; 0.5 mg/L, Replicate 1
  Hatching rate (%): 2.08%
  Number of hatched larvae 7 days after insecticide delivery: 47
[1]; 0.5 mg/L, Replicate 2
  Hatching rate (%): 3.57%
  Number of hatched larvae 7 days after insecticide delivery: 54
[1]; 1 mg/L, Replicate 1
  Hatching rate (%): 0.00%
  Number of hatched larvae 7 days after insecticide delivery: 59
[1]; 1 mg/L, Replicate 2
  Hatching rate (%): 0.00%
  Number of hatched larvae 7 days after insecticide delivery: 67
[1]
  inhibitory effect on the hatching of pest eggs of Tetranychus cinnabarinus (in words): excellent inhibitory effects
[2]
  inhibitory activity on the hatching of eggs of Thrips (in words): strong inhibitory activities
[2]; Replicate 1
  Hatching rate (%): 0.00%
  Number of hatched larvae 5 days after insecticide delivery: 0
[2]; Replicate 2
  Hatching rate (%): 0.00%
  Number of hatched larvae 5 days after insecticide delivery: 0
[2]; Replicate 3
  Hatching rate (%): 0.00%
  Number of hatched larvae 5 days after insecticide delivery: 0
[3]
  inhibitory activity on the hatching of eggs of Tetranychus urticae (in words): strong inhibitory activities
[3]; Replicate 1
  Hatching rate (%): 0.00%
  Number of hatched larvae 5 days after insecticide delivery: 0
[3]; Replicate 2
  Hatching rate (%): 0.00%
  Number of hatched larvae 5 days after insecticide delivery: 0
[4]
  inhibitory rate against Magnaporthe grisea (in words): strong inhibitory rate
  Average antifungal rate (%): 100.04%
  Antifungal rate of Magnaporthe grisea (%), Replicate 1: 99.73%
  Antifungal rate of Magnaporthe grisea (%), Replicate 2: 100.15%
  Antifungal rate of Magnaporthe grisea (%), Replicate 3: 100.24%
